According to patent US12606540B2, “Triazolone compound” (MEDSHINE DISCOVERY INC., priority 2020, dated 2026):

Test system: human peripheral blood mononuclear cells
Assay: Proliferation inhibition of peripheral blood mononuclear cells (flow cytometry)
Assay type: cell-based
Conditions: PBMC, PHA-M 5 μg/mL stimulation, 48 hours
Protocol: Flow cytometry was used to detect cell proliferation of human peripheral blood mononuclear cells.
• Cell complete medium: 445 mL of RPMI1640 cell culture+50 mL of fetal bovine serum+5 mL of double antibody • Buffer 1: 9.9 mL of phosphate buffer+0.1 mL of 10% bovine serum protein • Buffer 2: 10 mL of fetal bovine serum+490 mL of phosphate buffer 3.2 Cell Thawing • 3.2.1 20 mL of cell complete medium was added to a 50 mL of centrifuge tube and pre-heated in a 37° C. water bath for 5 minutes; • 3.2.2 the cell cryotubes were removed from the liquid nitrogen storage tank and placed on dry ice for 5-10 minutes to allow the liquid nitrogen to evaporate fully; • 3.2.3 the cell cryotubes were clamped with forceps and placed in the water bath, and shaken gently to thaw the frozen cells quickly; • 3.2.4 the thawed cells were transferred to the pre-heated cell complete medium with a pipette, centrifuged at 350 g for 5 min, then the supernatant was discarded, and the cells was resuspended by adding 10 mL of phosphate buffer; • 3.2.5 counting by cell counter, and cell viability and cell count were recorded. 3.3 Cell Labeling • 3.3.1 Cell proliferation labeling solution (CellTrace™ Violet, 1:1000 dilution) was prepared • 3.3.2 the above mixture was centrifuged at 350 g for 5 minutes, and the supernatant was discarded, then the cells (20×10^6/mL) were resuspended by adding Buffer 1, and the resuspended cells were gently blown by pipette, and an equal volume of cell proliferation labeling solution (prepared in 3.3.1) was added, and gently blown well by pipette; • 3.3.3 incubating in a 5% CO2, 37° C. cell incubator for 18 minutes; • 3.3.4 the 5-fold volume of cell complete medium was added and leaved at room temperature for 5 minutes to terminate the staining reaction; • 3.3.5 the above mixture was centrifuged at 350 g for 5 minutes, and the supernatant was discarded, then the cells were resuspended by adding 10 mL of cell complete medium, counted by cell counter, and cell viability and cell count were recorded; • 3.3.6 the above mixture was centrifuged at 350 g for 5 minutes, and the supernatant was discarded, then the corresponding volume of cell complete medium was added according to the cell counting results, and the density of the resuspended cells was 2×10^6/mL and was to be used. 3.4 Cell Proliferation Stimulation • 3.4.1 50 μL/well prepared cell suspension (1×10^5 cells/well), 50 μL of 4×PHA-M (the final concentration is 5 μg/mL), 50 μL of 4×test compound, 50 μL of cell complete medium were added to the wells of 96-well cell culture plate, and the corresponding control group was set up; (total volume of the reaction system is 200 μL) • 3.4.2 the cell culture plate was placed and incubated in a 5% CO2, 37° C. cell incubator for 48 hours. 3.5 Cell Proliferation Detection • 3.5.1 the above mixture was centrifuged at 350 g for 5 minutes and the supernatant was transferred to a new cell culture plate and stored at −80° C.; • 3.5.2 200 μL of Buffer 2 was add to the wells of the culture plate, and the above mixture was centrifuged at 350 g and the supernatant was discarded; • 3.5.3 cell dead or living staining solution (7-AAD, 1:100 dilution) was prepared with Buffer 2; • 3.5.4 100 μL/well of dead or living staining solution was added, and gently blown and mixed well by pipette, and stained at room temperature for 10 min; • 3.5.5 cell proliferation was detected by flow cytometry analyzer and analyzed by Flowjo software.

For `CCn1c(CO)nn(-c2cc(O[C@@H](C)C(F)(F)F)c(/C(F)=C/c3ncccc3Cl)cc2F)c1=O` [Compound 5], the IC50 was 800 pM.
